Data published in patent US12247015B2, “3-amino-4H-benzo[e][1,2,4]thiadiazine 1,1-dioxide derivatives as inhibitors of MRGX2” (Solent Therapeutics, LLC, priority 2019, dated 2025).

How the values were obtained:
[1] = target: human MRGX2 receptor (Homo sapiens (Human), UniProt Q96LB1); assay: In vitro radioligand binding assay (Kd); conditions: membrane from SF9 cells overexpressing human MRGX2; 3H-labeled ligand; pH 7.4, room temperature, 60 minutes
Protocol: In vitro Radioligand Binding Assay (Kd)
Equilibrium dissociation constants, Kd, for many of the compounds described in the Examples section (“test compounds”) are determined in the presence cellular membrane prepared from SF9 cell lines overexpressing the human MRGX2 receptor. The assay is carried out in a 96-well plate (Greiner V-Bottom #651201). […] The assay mixtures, which comprise MRGX2 receptor, radiolabeled ligand and test compound, are incubated at room temperature (˜22° C.) for 60 minutes to reach equilibrium. After incubation, the assay mixtures are collected on a filter mat (Filtermat A, Perkin Elmer) using a cell harvester (Harvester 96, TOMTEC). The filter mat is completely dried. A solid scintillant (Meltilex, Perkin Elmer) is added to each filter membrane and the level of radioactivity (“Signal”) from each well (assay mixture) is recorded using a scintillation counter (Trilux Microbeta, PerkinElmer). Kd is determined by curve-fitting the dose response data ([I], Signal) for each set of samples to the equation,
[formula] where [I] is the concentration of the test compound. The data are reported as pKd

[2] = target: hMRGX2 (CHO-K1 cells overexpressing MRGX2) (Homo sapiens (Human), UniProt Q96LB1); assay: In vitro inhibition (EC50) of intracellular calcium flux, FLIPR Tetra, substance P stimulation; format: cell-based; conditions: stimulated with MRGX2 ligand substance P, FLIPR Calcium 5, read-out: hMRGX2 Cellular Potency (pEC50) (converted)
Chain of hMRGX2 (CHO-K1 cells overexpressing MRGX2) (Q96LB1 whole entry): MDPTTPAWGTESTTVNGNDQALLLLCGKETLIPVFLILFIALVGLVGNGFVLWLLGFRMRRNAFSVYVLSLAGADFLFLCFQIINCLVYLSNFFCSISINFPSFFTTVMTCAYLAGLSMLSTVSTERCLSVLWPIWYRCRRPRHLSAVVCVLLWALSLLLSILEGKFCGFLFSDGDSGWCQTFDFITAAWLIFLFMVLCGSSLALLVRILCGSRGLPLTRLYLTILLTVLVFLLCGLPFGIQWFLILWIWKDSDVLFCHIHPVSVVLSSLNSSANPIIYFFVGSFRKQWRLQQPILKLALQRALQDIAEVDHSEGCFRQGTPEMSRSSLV
Summary of the method: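 CHO-K1 cells overexpressing human MRGX2, loaded with Calcium 5 dye for 30 min at 37 °C, then given compound (11-point, top 10 μM).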

Chain of human MRGX2 receptor (Q96LB1 whole entry): as above

| hMRGX2 Binding Affinity (pKd) [1] | EC50 [2] [nM] | SMILES |
| --- | --- | --- |
| 7.03 | 24.1 | O=S1(=O)N=C(NCc2ncco2)Nc2c(-c3cccc(F)c3Cl)cccc21 [Example 28, 5-(2-chloro-3-fluorophenyl)-3-((oxazol-2-ylmethyl)amino)-4H-benzo[e][1,2,4]thiadiazine 1,1-dioxide] |
| 6.67 | 51.1 | O=S1(=O)N=C(NCCF)Nc2c(-c3cccc(F)c3Cl)cccc21 [Example 147, 5-(2-chloro-3-fluorophenyl)-3-((2-fluoroethyl)amino)-4H-benzo[e][1,2,4]thiadiazine 1,1-dioxide] |
| 7.055 | 52 | CCNC1=NS(=O)(=O)c2cccc(-c3cccc(F)c3Cl)c2N1 [Example 39, 5-(2-chloro-3-fluorophenyl)-3-(ethylamino)-4H-benzo[e][1,2,4]thiadiazine 1,1-dioxide] |
| 7.025 | 38.5 | O=S1(=O)N=C(NCC(F)F)Nc2c(-c3cccc(F)c3Cl)cccc21 [Example 34, 5-(2-chloro-3-fluorophenyl)-3-((2,2-difluoroethyl)amino)-4H-benzo[e][1,2,4]thiadiazine 1,1-dioxide] |
| 6.984 | 51.9 | COCCNC1=NS(=O)(=O)c2cccc(-c3cccc(F)c3Cl)c2N1 [Example 2, 5-(2-chloro-3-fluorophenyl)-3-((2-methoxyethyl)amino)-4H-benzo[e][1,2,4]thiadiazine 1,1-dioxide] |
| 6.724 | 69.3 | CNC1=NS(=O)(=O)c2cccc(-c3cccc(F)c3Cl)c2N1 [Example 1, 5-(2-chloro-3-fluorophenyl)-3-(methylamino)-4H-benzo[e][1,2,4]thiadiazine 1,1-dioxide] |

Second part, the compound before the results:

| SMILES | hMRGX2 Binding Affinity (pKd) [1] | EC50 [2] [nM] |
| --- | --- | --- |
| Cc1nn(C)cc1-c1cccc2c1NC(Nc1ccc(C(C)C)cc1)=NS2(=O)=O [Example 103, 5-(1,3-dimethyl-1H-pyrazol-4-yl)-3-((4-isopropylphenyl)amino)-4H-benzo[e][1,2,4]thiadiaazne 1,1-dioxide] | 6.755 | 51.2 |
| O=S1(=O)N=C(NCc2nccs2)Nc2c(-c3cccc(F)c3Cl)cccc21 [Example 65, 5-(2-chloro-3-fluorophenyl)-3-((thiazol-2-ylmethyl)amino)-4H-benzo[e][1,2,4]thiadiazine 1,1-dioxide] | 7.055 | 10.7 |
| O=S1(=O)N=C(NCc2ncccc2F)Nc2c(-c3cccc(F)c3Cl)cccc21 [Example 12, 5-(2-chloro-3-fluorophenyl)-3-(((3-fluoropyridin-2-yl)methyl)amino)-4H-benzo[e][1,2,4]thiadiazine 1,1-dioxide] | 7.45 | 13.6 |
| CC(C)c1ccc(NC2=NS(=O)(=O)c3cccc(-c4cnn(C)c4)c3N2)cc1 [Example 107, 3-((4-isopropylphenyl)amino)-5-(1-methyl-1H-pyrazol-4-yl)-4H-benzo[e][1,2,4]thiadiazine 1,1-dioxide] | 6.52 | 132 |
| COCc1cccc2c1NC(Nc1ccc(C(C)C)cc1)=NS2(=O)=O [Example 169, 3-((4-isopropylphenyl)amino)-5-(methoxymethyl)-4H-benzo[e][1,2,4]thiadiazine 1,1-dioxide] | 5.95 | 474 |
| CC(C)c1ccc(NC2=NS(=O)(=O)c3cccc(-c4cnn(C5CCC5)c4)c3N2)cc1 [Example 105, 5-(1-cyclobutyl-1H-pyrazol-4-yl)-3-((4-isopropylphenyl)amino)-4H-benzo[e][1,2,4]thiadiazine 1,1-dioxide] | 6.06 | 119 |
| CCNC1=NS(=O)(=O)c2cc(F)cc(-c3cccc(F)c3Cl)c2N1 [Example 6, 5-(2-chloro-3-fluorophenyl)-3-(ethylamino)-7-fluoro-4H-benzo[e][1,2,4]thiadiazine 1,1-dioxide] | 6.78 | 21.6 |
| CC(C)c1ccc(NC2=NS(=O)(=O)c3cccc(C4CC4)c3N2)cc1 [Example 109, 5-cyclopropyl-3-((4-isopropylphenyl)amino)-4H-benzo[e][1,2,4]thiadiazine 1,1-dioxide] | 6.575 | 106 |
